Patent US9556179B2 (BRISTOL-MYERS SQUIBB COMPANY, priority 2012, dated 2017)

Key:
CK1ε = CK1ε (Homo sapiens (Human), UniProt P49674); assay: CK1ε kinase assay (Caliper LABCHIP electrophoretic separation of fluoresceinated peptide substrate and product); type: biochemical; settings: 200 pM enzyme, 50 μM ATP, 22 hours at room temperature
How it was run: (§1)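 Kinase reactions ran 22 h at room temperature, were stopped with EDTA, and phosphorylated product was separated electrophoretically from unphosphorylated fluoresceinated peptide. Compounds were tested at eleven concentrations from 10 mM DMSO stocks. IC50 by non-linear regression.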

CK1δ = CK1δ (Homo sapiens (Human), UniProt P48730); assay: CK1δ kinase assay (Caliper LABCHIP electrophoretic separation of fluoresceinated peptide substrate and product); type: biochemical; settings: 200 pM enzyme, 50 μM ATP, 22 hours at room temperature
How it was run: as §1

Chain of CK1δ (P48730 whole entry): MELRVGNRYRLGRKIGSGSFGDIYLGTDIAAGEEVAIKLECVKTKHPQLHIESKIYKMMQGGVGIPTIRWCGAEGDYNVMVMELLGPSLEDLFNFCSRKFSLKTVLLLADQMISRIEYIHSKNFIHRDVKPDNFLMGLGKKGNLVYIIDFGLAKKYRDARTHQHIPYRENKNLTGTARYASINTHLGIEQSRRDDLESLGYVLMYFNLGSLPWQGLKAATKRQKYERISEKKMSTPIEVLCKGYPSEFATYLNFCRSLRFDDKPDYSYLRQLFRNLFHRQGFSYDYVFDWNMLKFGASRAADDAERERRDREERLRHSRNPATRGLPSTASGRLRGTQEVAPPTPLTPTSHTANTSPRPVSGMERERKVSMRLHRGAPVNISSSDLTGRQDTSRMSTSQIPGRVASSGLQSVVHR
Chain of CK1ε (P49674 whole entry): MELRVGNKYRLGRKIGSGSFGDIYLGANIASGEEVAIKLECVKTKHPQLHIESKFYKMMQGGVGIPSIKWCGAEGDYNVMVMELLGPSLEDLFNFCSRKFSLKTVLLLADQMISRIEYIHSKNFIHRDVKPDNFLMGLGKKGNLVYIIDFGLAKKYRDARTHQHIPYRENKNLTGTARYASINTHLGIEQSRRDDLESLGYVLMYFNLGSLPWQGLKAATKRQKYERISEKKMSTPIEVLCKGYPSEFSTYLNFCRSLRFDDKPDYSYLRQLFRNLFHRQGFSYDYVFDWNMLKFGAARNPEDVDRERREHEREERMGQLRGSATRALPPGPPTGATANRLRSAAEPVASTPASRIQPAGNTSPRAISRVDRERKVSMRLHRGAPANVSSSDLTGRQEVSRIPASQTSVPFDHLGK

Structure (SMILES) | IC50 (CK1ε) | IC50 (CK1δ)
CC(C)(C)c1cc(C(=O)Nc2cn3nc(-c4c(-c5ccc(F)cc5)nc5ccccn45)ccc3n2)ncn1 [Compound 202, 6-(tert-butyl)-N-(6-(2-(4-fluorophenyl)imidazo[1,2-a]pyridin-3-yl)imidazo[1,2-b]pyridazin-2-yl)pyrimidine-4-carboxamide] | 28.1 nM | 9.84 nM
O=C(Nc1cn2nc(-c3c(-c4ccc(F)cc4)nc4ccccn34)ccc2n1)c1ccnc(N2CCOCC2)c1 [Compound 203, N-(6-(2-(4-fluorophenyl)imidazo[1,2-a]pyridin-3-yl)imidazo[1,2-b]pyridazin-2-yl)-2-morpholinoisonicotinamide] | 3.68 nM | 0.447 nM
O=C(Nc1cn2nc(-c3c(-c4ccc(F)cc4)nc4ccccn34)ccc2n1)c1cccc(-c2cccnc2)c1 [Compound 204, N-(6-(2-(4-fluorophenyl)imidazo[1,2-a]pyridin-3-yl)imidazo[1,2-b]pyridazin-2-yl)-3-(pyridin-3-yl)benzamide] | 1.83 nM | 2.09 nM
O=C(Nc1cn2nc(-c3c(-c4ccc(F)cc4)nc4ccccn34)ccc2n1)c1cccc(-c2cncnc2)c1 [Compound 205, N-(6-(2-(4-fluorophenyl)imidazo[1,2-a]pyridin-3-yl)imidazo[1,2-b]pyridazin-2-yl)-3-(pyrimidin-5-yl)benzamide] | 4.35 nM | 2.04 nM
Cc1nocc1C(=O)Nc1cn2nc(-c3c(-c4ccc(F)cc4)nc4ccccn34)ccc2n1 [Compound 209, N-(6-(2-(4-fluorophenyl)imidazo[1,2-a]pyridin-3-yl)imidazo[1,2-b]pyridazin-2-yl)-3-methylisoxazole-4-carboxamide] | 29.5 nM | 1.83 nM
Cc1onc(-c2ccccc2)c1C(=O)Nc1cn2nc(-c3c(-c4ccc(F)cc4)nc4ccccn34)ccc2n1 [Compound 210, N-(6-(2-(4-fluorophenyl)imidazo[1,2-a]pyridin-3-yl)imidazo[1,2-b]pyridazin-2-yl)-5-methyl-3-phenylisoxazole-4-carboxamide] | 75.1 nM | 17.6 nM
O=C(Nc1cn2nc(-c3c(-c4ccc(F)cc4)nc4ccccn34)ccc2n1)c1cncc(-c2cccs2)c1 [Compound 212, N-(6-(2-(4-fluorophenyl)imidazo[1,2-a]pyridin-3-yl)imidazo[1,2-b]pyridazin-2-yl)-5-(thiophen-2-yl) nicotinamide] | 5.98 nM | 0.64 nM
O=C(Cn1ccnc1)Nc1cn2nc(-c3c(-c4ccc(F)cc4)nc4ccccn34)ccc2n1 [Compound 214, N-(6-(2-(4-fluorophenyl)imidazo[1,2-a]pyridin-3-yl)imidazo[1,2-b]pyridazin-2-yl)-2-(1H-imidazol-1-yl) acetamide] | 22.3 nM | 2.19 nM
Cc1cc(C)n(CCC(=O)Nc2cn3nc(-c4c(-c5ccc(F)cc5)nc5ccccn45)ccc3n2)n1 [Compound 215, 3-(3,5-dimethyl-1H-pyrazol-1-yl)-N-(6-(2-(4-fluorophenyl)imidazo[1,2-a]pyridin-3-yl)imidazo[1,2-b]pyridazin-2-yl)propanamide] | 17.1 nM | 1.67 nM
CN1CCC(C(=O)Nc2cn3nc(-c4c(-c5ccc(F)cc5)nc5ccccn45)ccc3n2)CC1 [Compound 216, N-(6-(2-(4-fluorophenyl)imidazo[1,2-a]pyridin-3-yl)imidazo[1,2-b]pyridazin-2-yl)-1-methylpiperidine-4-carboxamide] | 26.7 nM | 2.95 nM
Cc1nc(-c2cccnc2)sc1C(=O)Nc1cn2nc(-c3c(-c4ccc(F)cc4)nc4ccccn34)ccc2n1 [Compound 218, N-(6-(2-(4-fluorophenyl)imidazo[1,2-a]pyridin-3-yl)imidazo[1,2-b]pyridazin-2-yl)-4-methyl-2-(pyridin-3-yl) thiazole-5-carboxamide] | 178 nM | 60.7 nM
O=C(CN1CCOCC1)Nc1cn2nc(-c3c(-c4ccc(F)cc4)nc4ccccn34)ccc2n1 [Compound 221, N-(6-(2-(4-fluorophenyl)imidazo[1,2-a]pyridin-3-yl)imidazo[1,2-b]pyridazin-2-yl)-2-morpholinoacetamide] | 42.2 nM | 4.06 nM
O=C(Nc1cn2nc(-c3c(-c4ccc(F)cc4)nc4ccc(N5CCCC5)nn34)ccc2n1)c1ccncc1 [Compound 222, N-(2-(4-fluorophenyl)-6-(pyrrolidin-1-yl)-[3,6′-biimidazo[1,2-b]pyridazin]-2′-yl)isonicotinamide] | 43.6 nM | 30.7 nM
CN1CCN(c2ccc3nc(-c4ccc(F)cc4)c(-c4ccc5nc(NC(=O)c6ccncc6)cn5n4)n3n2)CC1 [Compound 223, N-(2-(4-fluorophenyl)-6-(4-methylpiperazin-1-yl)-[3,6′-biimidazo[1,2-b]pyridazin]-2′-yl)isonicotinamide] | 10.1 nM | 6.85 nM
Nc1ccc2nc(-c3ccc(F)cc3)c(-c3ccc4nc(NC(=O)c5ccncc5)cn4n3)n2n1 [Compound 224, N-(6-amino-2-(4-fluorophenyl)-[3,6′-biimidazo[1,2-b]pyridazin]-2′-yl)isonicotinamide] | 2.81 nM | 0.694 nM
CNc1ccc2nc(-c3ccc(F)cc3)c(-c3ccc4nc(NC(=O)c5ccncc5)cn4n3)n2n1 [Compound 225, N-(2-(4-fluorophenyl)-6-(methyl-amino)-[3,6′-biimidazo[1,2-b]pyridazin]-2′-yl)isonicotinamide] | 10.4 nM | 2.82 nM
O=C(Nc1cn2nc(-c3c(-c4ccc(F)cc4)nc4ccc(NC5CCC5)nn34)ccc2n1)c1ccncc1 [Compound 227] | 36.9 nM | 12.5 nM
Cc1nc(-c2ccc(F)cc2)c(-c2ccc3nc(NC(=O)c4ccncc4)cn3n2)[nH]1 [Compound 228, N-(6-(4-(4-fluorophenyl)-2-methyl-1H-imidazol-5-yl)imidazo[1,2-b]pyridazin-2-yl)isonicotinamide] | 1.82 nM | 2.07 nM
O=C(Nc1cn2nc(-c3c(-c4ccc(F)cc4)ncn3CCO)ccc2n1)c1ccnc(F)c1 [Compound 230, 2-fluoro-N-(6-(4-(4-fluorophenyl)-1-(2-hydroxyethyl)-1H-imidazol-5-yl)imidazo[1,2-b]pyridazin-2-yl)isonicotinamide] | 3.38 nM | 0.452 nM
Cn1cnc(-c2ccc(F)cc2)c1-c1ccc2nc(NC(=O)c3ccnc(F)c3)cn2n1 [Compound 231, 2-fluoro-N-(6-(4-(4-fluorophenyl)-1-methyl-1H-imidazol-5-yl)imidazo[1,2-b]pyridazin-2-yl) isonicotinamide] | 2.91 nM | 0.417 nM

More lines, in order of falling IC50 (CK1ε), values ahead:

IC50 (CK1ε) | IC50 (CK1δ) | Structure (SMILES)
18.1 nM | 2.35 nM | N#Cc1cccc(-c2cccc(C(=O)Nc3cn4nc(-c5c(-c6ccc(F)cc6)nc6ccccn56)ccc4n3)c2)c1 [Compound 207, 3′-cyano-N-(6-(2-(4-fluorophenyl)imidazo[1,2-a]pyridin-3-yl]imidazo[1,2-b]pyridazin-2-yl)-[1,1′-biphenyl]-3-carboxamide]
17.2 nM | 1.61 nM | O=C(Nc1cn2nc(-c3c(-c4ccc(F)cc4)nc4ccccn34)ccc2n1)c1ccnc2[nH]cnc12 [Compound 213, N-(6-(2-(4-fluorophenyl)imidazo[1,2-a]pyridin-3-yl)imidazo[1,2-b]pyridazin-2-yl)-3H-imidazo[4,5-b] pyridine-7-carboxamide]
17 nM | 1.59 nM | O=C(Nc1cn2nc(-c3c(-c4ccc(F)cc4)nc4ccccn34)ccc2n1)c1ccon1 [Compound 208, N-(6-(2-(4-fluorophenyl)imidazo[1,2-a]pyridin-3-yl)imidazo[1,2-b]pyridazin-2-yl)isoxazole-3-carboxamide]
12.2 nM | 0.833 nM | O=C(Nc1cn2nc(-c3c(-c4ccc(F)cc4)nc4ccccn34)ccc2n1)C1CCN(c2ccncc2)CC1 [Compound 217, N-(6-(2-(4-fluorophenyl)imidazo[1,2-a]pyridin-3-yl)imidazo[1,2-b]pyridazin-2-yl)-1-(pyridin-4-yl)piperidine-4-carboxamide]
11.4 nM | 0.734 nM | O=C(Nc1cn2nc(-c3c(-c4ccc(F)cc4)nc4ccccn34)ccc2n1)C1CCOCC1 [Compound 220, N-(6-(2-(4-fluorophenyl)imidazo[1,2-a]pyridin-3-yl)imidazo[1,2-b]pyridazin-2-yl)tetrahydro-2H-pyran-4-carboxamide]
10.1 nM | 4.94 nM | O=C(Nc1cn2nc(-c3c(-c4ccc(F)cc4)nc4ccc(N5CCOCC5)nn34)ccc2n1)c1ccncc1 [Compound 226, N-(2-(4-fluorophenyl)-6-morpholino-[3,6′-biimidazo[1,2-b]pyridazin]-2′-yl)isonicotinamide]
6.77 nM | 1.96 nM | O=C(Nc1cn2nc(-c3c(-c4ccc(F)cc4)nc4ccccn34)ccc2n1)c1cccc(-c2nccs2)c1 [Compound 211, N-(6-(2-(4-fluorophenyl)imidazo[1,2-a]pyridin-3-yl)imidazo[1,2-b]pyridazin-2-yl)-3-(thiazol-2-yl)benzamide]
2.57 nM | 0.474 nM | CCCn1cnc(-c2ccc(F)cc2)c1-c1ccc2nc(NC(=O)c3ccnc(F)c3)cn2n1 [Compound 229, 2-Fluoro-N-(6-(4-(4-fluorophenyl)-1-propyl-1H-imidazol-5-yl)imidazo[1,2-b]pyridazin-2-yl)isonicotinamide]
1.54 nM | 0.322 nM | CCn1cnc(-c2ccc(F)cc2)c1-c1ccc2nc(NC(=O)c3ccnc(F)c3)cn2n1 [Compound 232, N-(6-(1-ethyl-4-(4-fluorophenyl)-1H-imidazol-5-yl)imidazo[1,2-b]pyridazin-2-yl)-2-fluoroiso-nicotinamide]
1.22 nM | 1.15 nM | Cc1nc(-c2ccncc2)sc1C(=O)Nc1cn2nc(-c3c(-c4ccc(F)cc4)nc4ccccn34)ccc2n1 [Compound 219, N-(6-(2-(4-fluorophenyl)imidazo[1,2-a]pyridin-3-yl)imidazo[1,2-b]pyridazin-2-yl)-4-methyl-2-(pyridin-4-yl) thiazole-5-carboxamide]
